Read-outs that look alike come from different tables or passages of the source.
Assays:
[1] = biological target: T1, AHR (Homo sapiens, UniProt P35869); experiment: In vitro assay 1: antagonism in human cell line (AHR transactivation, firefly luciferase reporter, kynurenic acid prestimulated); type: cell-based; conditions: AHR Antagonism Human IC50 [M]
T1 construct: U87 MG glioblastoma cells (ATCC #HTB-14) endogenously expressing AHR; endogenous in cells; host or cells: U87 MG glioblastoma cells (ATCC #HTB-14)
T1 sequence (P35869 11-848): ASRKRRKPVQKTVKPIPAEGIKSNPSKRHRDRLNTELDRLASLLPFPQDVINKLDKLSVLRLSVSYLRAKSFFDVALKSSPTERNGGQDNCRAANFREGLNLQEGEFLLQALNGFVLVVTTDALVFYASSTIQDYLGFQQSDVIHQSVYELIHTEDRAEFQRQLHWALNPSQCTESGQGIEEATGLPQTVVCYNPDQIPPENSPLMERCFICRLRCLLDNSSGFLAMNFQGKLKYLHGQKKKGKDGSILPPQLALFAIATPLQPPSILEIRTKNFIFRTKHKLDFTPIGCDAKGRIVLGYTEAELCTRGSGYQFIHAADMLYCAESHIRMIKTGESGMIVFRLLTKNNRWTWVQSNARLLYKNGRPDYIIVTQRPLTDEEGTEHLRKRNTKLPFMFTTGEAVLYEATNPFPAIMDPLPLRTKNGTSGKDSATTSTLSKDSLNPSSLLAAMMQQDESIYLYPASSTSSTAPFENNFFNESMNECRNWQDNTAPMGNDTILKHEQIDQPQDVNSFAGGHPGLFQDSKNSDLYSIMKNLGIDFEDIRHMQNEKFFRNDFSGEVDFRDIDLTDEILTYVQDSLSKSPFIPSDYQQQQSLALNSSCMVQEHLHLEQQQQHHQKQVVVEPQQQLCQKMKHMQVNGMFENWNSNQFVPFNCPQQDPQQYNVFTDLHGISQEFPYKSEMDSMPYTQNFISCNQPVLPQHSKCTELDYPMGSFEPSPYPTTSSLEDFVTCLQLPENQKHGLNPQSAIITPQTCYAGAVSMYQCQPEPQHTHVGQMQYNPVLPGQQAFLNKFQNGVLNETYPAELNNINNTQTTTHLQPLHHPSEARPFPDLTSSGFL
Method in brief: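 Antagonism measured as loss of kynurenic acid-driven firefly luciferase from DRE reporter in stably transfected U87 MG cells; constitutive Renilla signal monitors cytotoxicity. Positive/negative control normalization, staurosporine 5 μM with 150 μM kynurenic acid as inhibition control; replicates given as mean or median.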

[2] = biological target: T2, AHR (Mus musculus, UniProt P30561); experiment: In vitro assay 3: antagonism in mouse cell line (AHR transactivation, firefly luciferase reporter, kynurenic acid prestimulated); type: cell-based
T2 sequence (P30561 1-848 P471L/N533S/M589L): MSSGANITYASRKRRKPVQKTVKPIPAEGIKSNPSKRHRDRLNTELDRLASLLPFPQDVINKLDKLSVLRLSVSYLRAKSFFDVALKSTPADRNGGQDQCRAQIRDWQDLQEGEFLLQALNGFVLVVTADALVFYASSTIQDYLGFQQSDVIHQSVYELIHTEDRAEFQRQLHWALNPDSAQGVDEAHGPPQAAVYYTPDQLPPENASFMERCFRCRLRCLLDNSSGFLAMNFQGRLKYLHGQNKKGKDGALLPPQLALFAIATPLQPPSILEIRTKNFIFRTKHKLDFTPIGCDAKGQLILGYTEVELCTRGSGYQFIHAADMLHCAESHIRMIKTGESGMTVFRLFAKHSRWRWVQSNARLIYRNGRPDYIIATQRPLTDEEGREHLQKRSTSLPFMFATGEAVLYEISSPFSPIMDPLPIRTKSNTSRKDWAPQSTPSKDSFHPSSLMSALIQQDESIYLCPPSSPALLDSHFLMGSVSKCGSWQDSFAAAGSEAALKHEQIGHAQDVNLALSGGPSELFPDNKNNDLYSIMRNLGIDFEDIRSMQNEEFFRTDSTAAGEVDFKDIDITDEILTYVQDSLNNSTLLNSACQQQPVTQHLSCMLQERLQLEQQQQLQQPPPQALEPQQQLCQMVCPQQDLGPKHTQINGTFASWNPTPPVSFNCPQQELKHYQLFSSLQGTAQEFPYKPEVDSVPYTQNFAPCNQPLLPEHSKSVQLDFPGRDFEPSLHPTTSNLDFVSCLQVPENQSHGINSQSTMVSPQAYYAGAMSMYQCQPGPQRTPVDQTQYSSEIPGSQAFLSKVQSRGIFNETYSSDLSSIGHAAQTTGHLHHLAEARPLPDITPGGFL
Method in brief: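 Antagonism read as reduced firefly luciferase signal (SteadyGlo) from a stably transfected AHR/DRE reporter in a mouse line prestimulated with kynurenic acid. Data normalized to controls, the full-inhibition control being cells without kynurenic acid; multiple determinations given as average or median values.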

[3] = mouse Hepa 1c1c7 cells, 200 μM kynurenic acid, 20 hours, read-out: AHR Antagonism Mouse IC50
[4] = Hepa 1c1c7 cells, 200 μM kynurenic acid, 20 hours, firefly luciferase reporter, read-out: AHR Antagonism Mouse IC50

IC50 [1] [M] | IC50 [2, 3] [nM] | IC50 ([1]; firefly luciferase reporter) [M] | IC50 [2, 4] [nM] | SMILES | IC50 ([2]; read-out: AHR Antagonism Mouse IC50, mouse Hepa 1c1c7 cells, 200 μM kynurenic acid, 20 hours) [nM]
– | – | 2.28e-09 | 26.1 | COc1ccc(-c2nc3c4cccc(S(C)(=N)=O)c4nc(N[C@@H]4CCCCNC4=O)n3n2)cc1 (single isomer, unassigned) [Example 855] | –
– | – | 3.26e-09 | 2.13 | COCCNC(=O)[C@H](Nc1nc2c(Br)cccc2c2nc(-c3ccc(OC)cc3)nn12)C(C)C [Example 923, N^2-[7-bromo-2-(4-methoxyphenyl)[1,2,4]triazolo[1,5-c]quinazolin-5-yl]-N-(2-methoxyethyl)-D-valinamide] | –
– | – | 4.02e-08 | 93 | CC(C)n1cc(-c2nc3c4cccc(C(F)(F)F)c4nc(N[C@H]4CNCCNC4=O)n3n2)cn1 [Example 960, (6S)-6-({2-[1-(propan-2-yl)-1H-pyrazol-4-yl]-7-(trifluoromethyl)[1,2,4]triazolo[1,5-c]quinazolin-5-yl}amino)-1,4-diazepan-5-one] | –
– | – | 7.73e-08 | 341 | O=C1NCCNC[C@H]1Nc1nc2c(C3CC3)cccc2c2nc(-c3cnn(CC4CC4)c3)nn12 [Example 954, (6R)-6-({7-cyclopropyl-2-[1-(cyclopropylmethyl)-1H-pyrazol-4-yl][1,2,4]triazolo[1,5-c]quinazolin-5-yl}amino)-1,4-diazepan-5-one] | –
– | – | 6.57e-09 | 15.8 | COc1ccc(-c2nc3c4cccc(Br)c4nc(N[C@@H](C(=O)O)C(C)C)n3n2)cc1 [Example 872, N-[7-bromo-2-(4-methoxyphenyl)[1,2,4]triazolo[1,5-c]quinazolin-5-yl]-D-valine] | –
> 2e-06 | 97.8 | – | – | CCCCNC(=O)[C@H](C)Nc1nc2c(Br)cccc2c2nc(-c3ccc(Cl)cc3OC(F)(F)F)nn12 [Example 687, N^2-{7-bromo-2-[4-chloro-2-(trifluoromethoxy)phenyl][1,2,4]triazolo[1,5-c]quinazolin-5-yl}-N-butyl-L-alaninamide] | –
7.68e-09 | 25 | – | – | CC(C)n1cc(-c2nc3c4cccc(OC(F)(F)F)c4nc(N[C@@H]4CCCCNC4=O)n3n2)cn1 [Example 759, (3R)-3-({2-[1-(propan-2-yl)-1H-pyrazol-4-yl]-7-(trifluoromethoxy)[1,2,4]triazolo[1,5-c]quinazolin-5-yl}amino)azepan-2-one] | –
1.69e-09 | 11.6 | – | – | O=C1NCCCC[C@H]1Nc1nc2c(C(F)(F)F)cccc2c2nc(-c3cnn(CC4CCC4)c3)nn12 [Example 744, (3R)-3-({2-[1-(cyclobutylmethyl)-1H-pyrazol-4-yl]-7-(trifluoromethyl)[1,2,4]triazolo[1,5-c]quinazolin-5-yl}amino)azepan-2-one] | –

More lines, now with the values behind:

SMILES | IC50 [1] [M] | IC50 [2, 3] [nM] | IC50 ([1]; firefly luciferase reporter) [M] | IC50 [2, 4] [nM] | IC50 ([2]; read-out: AHR Antagonism Mouse IC50, mouse Hepa 1c1c7 cells, 200 μM kynurenic acid, 20 hours) [nM]
CCCNC(=O)[C@@H](C)Nc1nc2ccccc2c2nc(-c3cccc(OC(F)(F)F)c3)nn12 [Example 321, N-propyl-N2-{2-[3-(trifluoromethoxy)phenyl][1,2,4]triazolo[1,5-c]quinazolin-5-yl}-D-alaninamide] | 2.06e-08 | 12.4 | – | – | –
Cc1ccc2nc(N[C@@H]3CCCCNC3=O)n3nc(-c4cnn(C)c4)nc3c2c1 [Example 158, (3R)-3-{[9-methyl-2-(1-methyl-1H-pyrazol-4-yl)[1,2,4]triazolo[1,5-c]quinazolin-5-yl]amino}azepan-2-one] | 1.77e-08 | 32.2 | – | – | –
CC[C@@H](Nc1nc2ccccc2c2nc(-c3cc(Br)ccc3OC(F)(F)F)nn12)C(N)=O [Example 507, (2R)-2-({2-[5-bromo-2-(trifluoromethoxy)phenyl][1,2,4]triazolo[1,5-c]quinazolin-5-yl}amino)butanamide] | 3.44e-07 | 41.2 | – | – | –
O=C1NCCCC[C@H]1Nc1nc2ccccc2c2nc(-c3cncc(Cl)c3)nn12 [Example 480, (3R)-3-{[2-(5-chloropyridin-3-yl)[1,2,4]triazolo[1,5-c]quinazolin-5-yl]amino}azepan-2-one] | 2.07e-08 | 14.8 | – | – | –
O=C1NCCCC[C@H]1Nc1nc2c(Br)cccc2c2nc(-c3ccncc3)nn12 [Example 216, (3R)-3-{[7-bromo-2-(pyridin-4-yl)[1,2,4]triazolo[1,5-c]quinazolin-5-yl]amino}azepan-2-one] | 3.35e-09 | 12.1 | – | – | –
CCNC(=O)C(CC)Nc1nc2ccccc2c2nc(-c3ccccc3OC(F)(F)F)nn12 (centres unmarked) [Example 463, N-ethyl-2-({2-[2-(trifluoromethoxy)phenyl][1,2,4]triazolo[1,5-c]quinazolin-5-yl}amino)butanamide] | 2.94e-08 | 1.88 | – | – | –
CC[C@H](Nc1nc2c(Br)cccc2c2nc(-c3ccc(OC)cc3OC(F)(F)F)nn12)C(N)=O [Example 568, (2S)-2-({7-bromo-2-[4-methoxy-2-(trifluoromethoxy)phenyl][1,2,4]triazolo[1,5-c]quinazolin-5-yl}amino)butanamide] | 3.31e-07 | – | – | – | 29.9
O=C1NCC[C@H]1Nc1nc2ccccc2c2nc(-c3ccccc3OC(F)(F)F)nn12 [Example 459, (3R)-3-({2-[2-(trifluoromethoxy)phenyl][1,2,4]triazolo[1,5-c]quinazolin-5-yl}amino)pyrrolidin-2-one] | 7.9e-08 | 30.2 | – | – | –
N#Cc1ccc(-c2nc3c4cccc(Br)c4nc(N[C@@H]4CCCCNC4=O)n3n2)cc1 [Example 558, 4-(7-bromo-5-{[(3R)-2-oxoazepan-3-yl]amino}[1,2,4]triazolo[1,5-c]quinazolin-2-yl)benzonitrile] | 5.96e-09 | 0.276 | – | – | –
CS(=N)(=O)c1ccc(-c2nc3c4ccccc4nc(N[C@@H]4CCCCNC4=O)n3n2)cc1 (single isomer, unassigned) [Example 308] | 1.1e-07 | 18.6 | – | – | –
CS(=N)(=O)c1ccc(-c2nc3c4ccccc4nc(N[C@@H]4CCCCNC4=O)n3n2)cc1 (stereo partly drawn) [Example 306, (3R)-3-({2-[4-(S-methylsulfonimidoyl)phenyl][1,2,4]triazolo[1,5-c]quinazolin-5-yl}amino)azepan-2-one] | 1.09e-07 | 31.2 | – | – | –
